Measurements: paper PMC6130205 (Journal of medicinal chemistry, 2018)

Columns and labels:
Format in all cases: biochemical
[1] = target: T1, SIRT1 (Homo sapiens, UniProt Q96EB6); assay: fluorometric substrate cleavage kinetics
T1 sequence (Q96EB6 2-747): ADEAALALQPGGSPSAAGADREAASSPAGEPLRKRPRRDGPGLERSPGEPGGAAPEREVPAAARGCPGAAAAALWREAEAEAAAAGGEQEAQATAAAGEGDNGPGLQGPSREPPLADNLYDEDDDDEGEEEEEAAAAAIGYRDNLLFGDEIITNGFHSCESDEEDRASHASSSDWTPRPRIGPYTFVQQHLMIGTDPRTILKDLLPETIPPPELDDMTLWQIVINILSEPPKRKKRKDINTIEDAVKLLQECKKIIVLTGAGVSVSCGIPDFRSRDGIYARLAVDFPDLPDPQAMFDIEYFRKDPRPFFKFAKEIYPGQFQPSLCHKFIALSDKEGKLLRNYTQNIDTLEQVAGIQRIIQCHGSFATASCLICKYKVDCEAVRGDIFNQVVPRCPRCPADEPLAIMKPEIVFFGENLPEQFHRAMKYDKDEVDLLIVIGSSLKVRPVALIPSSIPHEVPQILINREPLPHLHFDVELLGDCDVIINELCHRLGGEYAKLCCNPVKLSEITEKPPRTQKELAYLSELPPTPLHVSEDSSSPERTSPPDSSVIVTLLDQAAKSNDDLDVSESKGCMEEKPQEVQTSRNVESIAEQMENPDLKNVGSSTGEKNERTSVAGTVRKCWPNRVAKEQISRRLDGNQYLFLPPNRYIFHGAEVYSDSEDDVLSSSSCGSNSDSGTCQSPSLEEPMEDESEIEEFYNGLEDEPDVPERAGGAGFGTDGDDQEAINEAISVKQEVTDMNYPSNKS

[2] = target: T1, SIRT1; assay: fluorometric substrate cleavage
[3] = target: T1, SIRT1; assay: in vitro SIRT1 reaction monitored by […] NMR

Row | SMILES | fluorometric substrate cleavage kinetics (Kcat/Km) [1] | fluorometric substrate cleavage (Kcat) [2] | also measured
1 | Cc1cc(=O)oc2cc(NC(=O)[C@H](CCCCNC(=O)c3cccc(F)c3)NC(=O)OCc3ccccc3)ccc12 [compound 3, Benzyl (6-(3-Fluorobenzamido)-1-((4-methyl-2-oxo-2H-chromen-7-yl)amino)-1-oxohexan-2-yl)carbamate] | 63.39 ± 4.32 M⁻¹ s⁻¹ | – | –
2 | Cc1cc(=O)oc2cc(NC(=O)[C@H](CCCCNC(=O)Cc3ccccc3)NC(=O)OCc3ccccc3)ccc12 [compound 7] | – | (0.37 ± 0.02) × 10^−3 s^−1 | –
3 | Cc1cc(=O)oc2cc(NC(=O)[C@H](CCCCNC(=O)c3ccc(F)cc3)NC(=O)OCc3ccccc3)ccc12 [compound 4, Benzyl (6-(4-Fluorobenzamido)-1-((4-methyl-2-oxo-2H-chromen-7-yl)amino)-1-oxohexan-2-yl)carbamate] | 16.08 ± 1.32 M⁻¹ s⁻¹ | – | –
4 | Cc1cc(=O)oc2cc(NC(=O)[C@H](CCCCNC(=O)c3ccccc3)NC(=O)OCc3ccccc3)ccc12 [compound 1, Benzyl (6-Benzamido-1-((4-methyl-2-oxo-2H-chromen-7-yl)-amino)-1-oxohexan-2-yl)carbamate] | – | (0.41 ± 0.014) × 10^−3 s^−1 | –
5 | Cc1cc(=O)oc2cc(NC(=O)[C@H](CCCCNC(=O)c3ccccc3F)NC(=O)OCc3ccccc3)ccc12 [compound 2, Benzyl (6-(2-Fluorobenzamido)-1-((4-methyl-2-oxo-2H-chromen-7-yl)amino)-1-oxohexan-2-yl)carbamate] | 26.02 ± 7.07 M⁻¹ s⁻¹ | – | –
6 | O=C(CCCCCNC(=O)c1ccccc1F)Nc1ccccc1 [compound 12, 2-FBzAHA] | – | – | in vitro SIRT1 reaction monitored by 19F NMR [3]: The enzymatic cleavage of 2F-BzAHA by SIRT1 was validated using an in vitro SIRT1 enzyme assay
7 | CCc1ccc(C(=O)NCCCC[C@H](NC(=O)OCc2ccccc2)C(=O)Nc2ccc3c(C)cc(=O)oc3c2)cc1 [compound 5, Benzyl (6-(4-Ethylbenzamido)-1-((4-methyl-2-oxo-2H-chromen-7-yl)amino)-1-oxohexan-2-yl)carbamate] | – | the 4-ethyl substitution increased the Kcat for SIRT1 but only minimally | –
